Measured values published in the supplement of paper PMC13207355.

How the values were obtained:
Conditions in all cases: exposure time: 72 h
[1] = tested on: E13 (patient-derived glioblastoma stem cells of classical subtype); assay: surviving fraction (nuclei count normalised to DMSO); higher = more cells surviving (less toxic)
[2] = tested on: E28 (patient-derived glioblastoma stem cells of classical subtype); assay: as above
[3] = tested on: E31 (patient-derived glioblastoma stem cells of proneural subtype); assay: as above
[4] = tested on: E34 (patient-derived glioblastoma stem cells of proneural subtype); assay: as above
[5] = tested on: E21 (patient-derived glioblastoma stem cells of mesenchymal subtype); assay: as above
[6] = tested on: E57 (patient-derived glioblastoma stem cells of mesenchymal subtype); assay: as above
[7] = tested on: FT3469 (normal neural stem cell line); assay: as above
[8] = tested on: E13; assay: phenotypic distance (Euclidean, principal components) from DMSO controls (arbitrary units); higher = stronger morphological change
[9] = tested on: E28; assay: as above
[10] = tested on: E31; assay: as above
[11] = tested on: E34; assay: as above
[12] = tested on: E21; assay: as above
[13] = tested on: E57; assay: as above
[14] = tested on: FT3469; assay: as above
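Wherever phenotypic distance (Euclidean, principal components) from DMSO controls is given: cell Painting imaging in 384-well plates, CellProfiler features reduced to at least 20 principal components, Euclidean distance versus same-plate DMSO vehicle wells (0.1% v/v), median over six images per well.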
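Wherever surviving fraction (nuclei count normalised to DMSO) is given: nuclei counted by high-content imaging of Hoechst-stained cells in laminin-coated 384-well plates, relative to 0.1% DMSO vehicle wells, with staurosporine as cell-death control.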

CCC(C)n1ncn(-c2ccc(N3CCN(c4ccc(OCC5COC(Cn6cncn6)(c6ccc(Cl)cc6Cl)O5)cc4)CC3)cc2)c1=O (centres undefined) [Itraconazole]
Conditions	phenotypic distance	surviving fraction
[1], 4.1 nM	–	0.869
[1], 12.3 nM	–	1.07
[1], 37 nM	–	0.889
[1], 111.1 nM	–	1.02
[1], 333.3 nM	–	0.966
[1], 1000 nM	–	0.801
[1], 3000 nM	–	0.653
[2], 4.1 nM	–	1.1
[2], 12.3 nM	–	1.07
[2], 37 nM	–	1.18
[2], 111.1 nM	–	0.888
[2], 333.3 nM	–	1.07
[2], 1000 nM	–	0.897
[2], 3000 nM	–	0.735
[3], 4.1 nM	–	1.13
[3], 12.3 nM	–	1.12
[3], 37 nM	–	1.1
[3], 111.1 nM	–	1.03
[3], 333.3 nM	–	1.08
[3], 1000 nM	–	1.09
[3], 3000 nM	–	0.996
[4], 4.1 nM	–	0.814
[4], 12.3 nM	–	0.933
[4], 37 nM	–	0.922
[4], 111.1 nM	–	1.02
[4], 333.3 nM	–	1.04
[4], 1000 nM	–	0.831
[4], 3000 nM	–	0.701
[5], 4.1 nM	–	1.03
[5], 12.3 nM	–	1.02
[5], 37 nM	–	1.01
[5], 111.1 nM	–	0.979
[5], 333.3 nM	–	1.05
[5], 1000 nM	–	0.79
[5], 3000 nM	–	0.532
[6], 4.1 nM	–	1.05
[6], 12.3 nM	–	1.03
[6], 37 nM	–	1.02
[6], 111.1 nM	–	1.08
[6], 333.3 nM	–	1.07
[6], 1000 nM	–	0.999
[6], 3000 nM	–	0.558
[7], 4.1 nM	–	0.763
[7], 12.3 nM	–	1.05
[7], 37 nM	–	1.03
[7], 111.1 nM	–	1.06
[7], 333.3 nM	–	0.993
[7], 1000 nM	–	0.895
[7], 3000 nM	–	0.53
[8], 4.1 nM	0.693	–
[8], 12.3 nM	0.503	–
[8], 37 nM	1.03	–
[8], 111.1 nM	0.709	–
[8], 333.3 nM	0.981	–
[8], 1000 nM	2.73	–
[8], 3000 nM	4.62	–
[9], 4.1 nM	0.725	–
[9], 12.3 nM	0.689	–
[9], 37 nM	0.685	–
[9], 111.1 nM	0.54	–
[9], 333.3 nM	0.778	–
[9], 1000 nM	1.01	–
[9], 3000 nM	1.89	–
[10], 4.1 nM	0.564	–
[10], 12.3 nM	0.769	–
[10], 37 nM	0.273	–
[10], 111.1 nM	0.748	–
[10], 333.3 nM	0.758	–
[10], 1000 nM	1.32	–
[10], 3000 nM	5	–
[11], 4.1 nM	0.775	–
[11], 12.3 nM	0.644	–
[11], 37 nM	0.488	–
[11], 111.1 nM	0.692	–
[11], 333.3 nM	0.901	–
[11], 1000 nM	1.17	–
[11], 3000 nM	4	–
[12], 4.1 nM	0.987	–
[12], 12.3 nM	0.508	–
[12], 37 nM	0.932	–
[12], 111.1 nM	0.917	–
[12], 333.3 nM	0.975	–
[12], 1000 nM	3.76	–
[12], 3000 nM	7.08	–
[13], 4.1 nM	0.542	–
[13], 12.3 nM	0.297	–
[13], 37 nM	0.803	–
[13], 111.1 nM	0.874	–
[13], 333.3 nM	0.482	–
[13], 1000 nM	2.51	–
[13], 3000 nM	6.42	–
[14], 4.1 nM	0.966	–
[14], 12.3 nM	0.554	–
[14], 37 nM	1.33	–
[14], 111.1 nM	3.66	–
[14], 333.3 nM	0.753	–
[14], 1000 nM	1.14	–
[14], 3000 nM	3.43	–

O=C(CCBr)N1CCN(C(=O)CCBr)CC1 [Pipobroman]
Conditions	phenotypic distance	surviving fraction
[1], 4.1 nM	–	0.929
[1], 12.3 nM	–	0.984
[1], 37 nM	–	1.02
[1], 111.1 nM	–	0.921
[1], 333.3 nM	–	0.977
[1], 1000 nM	–	0.982
[1], 3000 nM	–	0.98
[2], 4.1 nM	–	0.961
[2], 12.3 nM	–	1.13
[2], 37 nM	–	0.966
[2], 111.1 nM	–	0.954
[2], 333.3 nM	–	0.979
[2], 1000 nM	–	0.931
[2], 3000 nM	–	0.713
[3], 4.1 nM	–	0.99
[3], 12.3 nM	–	0.958
[3], 37 nM	–	0.924
[3], 111.1 nM	–	0.976
[3], 333.3 nM	–	0.859
[3], 1000 nM	–	0.759
[3], 3000 nM	–	0.716
[4], 4.1 nM	–	1.03
[4], 12.3 nM	–	0.865
[4], 37 nM	–	1.08
[4], 111.1 nM	–	1.06
[4], 333.3 nM	–	1.01
[4], 1000 nM	–	0.892
[4], 3000 nM	–	1.1
[5], 4.1 nM	–	1.13
[5], 12.3 nM	–	0.912
[5], 37 nM	–	1.01
[5], 111.1 nM	–	0.966
[5], 333.3 nM	–	1.05
[5], 1000 nM	–	0.836
[5], 3000 nM	–	0.811
[6], 4.1 nM	–	1.05
[6], 12.3 nM	–	1.02
[6], 37 nM	–	1.06
[6], 111.1 nM	–	1.07
[6], 333.3 nM	–	1.07
[6], 1000 nM	–	0.958
[6], 3000 nM	–	0.816
[7], 4.1 nM	–	1.12
[7], 12.3 nM	–	1.08
[7], 37 nM	–	0.946
[7], 111.1 nM	–	1
[7], 333.3 nM	–	1.05
[7], 1000 nM	–	0.961
[7], 3000 nM	–	0.86
[8], 4.1 nM	0.472	–
[8], 12.3 nM	0.7	–
[8], 37 nM	0.541	–
[8], 111.1 nM	0.407	–
[8], 333.3 nM	0.764	–
[8], 1000 nM	0.638	–
[8], 3000 nM	0.745	–
[9], 4.1 nM	0.503	–
[9], 12.3 nM	0.763	–
[9], 37 nM	0.907	–
[9], 111.1 nM	0.719	–
[9], 333.3 nM	0.82	–
[9], 1000 nM	0.794	–
[9], 3000 nM	1.56	–
[10], 4.1 nM	0.424	–
[10], 12.3 nM	0.596	–
[10], 37 nM	0.531	–
[10], 111.1 nM	0.433	–
[10], 333.3 nM	0.574	–
[10], 1000 nM	1.19	–
[10], 3000 nM	1.45	–
[11], 4.1 nM	0.724	–
[11], 12.3 nM	0.45	–
[11], 37 nM	0.596	–
[11], 111.1 nM	0.698	–
[11], 333.3 nM	0.871	–
[11], 1000 nM	0.646	–
[11], 3000 nM	0.982	–
[12], 4.1 nM	0.8	–
[12], 12.3 nM	0.777	–
[12], 37 nM	0.578	–
[12], 111.1 nM	0.528	–
[12], 333.3 nM	0.76	–
[12], 1000 nM	0.889	–
[12], 3000 nM	2.2	–
[13], 4.1 nM	0.542	–
[13], 12.3 nM	0.868	–
[13], 37 nM	0.587	–
[13], 111.1 nM	0.428	–
[13], 333.3 nM	0.404	–
[13], 1000 nM	0.464	–
[13], 3000 nM	1.79	–
[14], 4.1 nM	0.541	–
[14], 12.3 nM	0.755	–
[14], 37 nM	0.771	–
[14], 111.1 nM	0.734	–
[14], 333.3 nM	0.615	–
[14], 1000 nM	1.02	–
[14], 3000 nM	1.65	–

CC(C)(C)C1CCN(C(=O)n2ncc(C(O)(c3ccccc3)c3ccccc3)n2)CC1 [ML211]
Conditions	phenotypic distance	surviving fraction
[1], 4.1 nM	–	0.909
[1], 12.3 nM	–	0.883
[1], 37 nM	–	0.918
[1], 111.1 nM	–	0.985
[1], 333.3 nM	–	0.984
[1], 1000 nM	–	0.975
[1], 3000 nM	–	0.916
[2], 4.1 nM	–	1.09
[2], 12.3 nM	–	1
[2], 37 nM	–	1
[2], 111.1 nM	–	1
[2], 333.3 nM	–	0.987
[2], 1000 nM	–	0.9874
[2], 3000 nM	–	0.883
[3], 4.1 nM	–	0.9689
[3], 12.3 nM	–	0.979
[3], 37 nM	–	0.993
[3], 111.1 nM	–	0.928
[3], 333.3 nM	–	1.04
[3], 1000 nM	–	0.973
[3], 3000 nM	–	0.823
[4], 4.1 nM	–	0.956
[4], 12.3 nM	–	0.941
[4], 37 nM	–	0.95
[4], 111.1 nM	–	0.868
[4], 333.3 nM	–	0.976
[4], 1000 nM	–	0.965
[4], 3000 nM	–	0.8932
[5], 4.1 nM	–	0.93
[5], 12.3 nM	–	0.888
[5], 37 nM	–	0.946
[5], 111.1 nM	–	0.8973
[5], 333.3 nM	–	0.973
[5], 1000 nM	–	0.9031
[5], 3000 nM	–	0.889
[6], 4.1 nM	–	0.995
[6], 12.3 nM	–	1
[6], 37 nM	–	0.9744
[6], 111.1 nM	–	1.02
[6], 333.3 nM	–	0.964
[6], 1000 nM	–	0.974
[6], 3000 nM	–	0.894
[7], 4.1 nM	–	0.879
[7], 12.3 nM	–	1.008
[7], 37 nM	–	0.989
[7], 111.1 nM	–	0.934
[7], 333.3 nM	–	0.885
[7], 1000 nM	–	0.816
[7], 3000 nM	–	0.817
[8], 4.1 nM	0.844	–
[8], 12.3 nM	0.731	–
[8], 37 nM	0.757	–
[8], 111.1 nM	0.461	–
[8], 333.3 nM	0.703	–
[8], 1000 nM	0.699	–
[8], 3000 nM	0.911	–
[9], 4.1 nM	0.935	–
[9], 12.3 nM	0.886	–
[9], 37 nM	0.733	–
[9], 111.1 nM	0.678	–
[9], 333.3 nM	0.596	–
[9], 1000 nM	0.668	–
[9], 3000 nM	1.42	–
[10], 4.1 nM	0.563	–
[10], 12.3 nM	0.567	–
[10], 37 nM	0.644	–
[10], 111.1 nM	0.641	–
[10], 333.3 nM	1.05	–
[10], 1000 nM	0.871	–
[10], 3000 nM	1.12	–
[11], 4.1 nM	1.21	–
[11], 12.3 nM	0.912	–
[11], 37 nM	1.05	–
[11], 111.1 nM	0.782	–
[11], 333.3 nM	0.763	–
[11], 1000 nM	0.734	–
[11], 3000 nM	0.728	–
[12], 4.1 nM	0.863	–
[12], 12.3 nM	0.923	–
[12], 37 nM	0.671	–
[12], 111.1 nM	0.652	–
[12], 333.3 nM	0.683	–
[12], 1000 nM	0.885	–
[12], 3000 nM	0.961	–
[13], 4.1 nM	0.588	–
[13], 12.3 nM	0.447	–
[13], 37 nM	0.552	–
[13], 111.1 nM	0.483	–
[13], 333.3 nM	0.642	–
[13], 1000 nM	0.6	–
[13], 3000 nM	0.835	–
[14], 4.1 nM	1.1	–
[14], 12.3 nM	0.699	–
[14], 37 nM	0.637	–
[14], 111.1 nM	0.748	–
[14], 333.3 nM	0.841	–
[14], 1000 nM	1.25	–
[14], 3000 nM	1.74	–
